From ChEMBL document CHEMBL5335813, “Gausemycin Antibiotic Family Acts via Ca2+-Dependent Membrane Targeting” (2024)
In brackets after ≈: the same amount, converted by molar mass. Activity calls are given as the source filed them. No cut-off for these calls is given here.

Experiments:
Staphylococcus aureus [1] = assay: Antimicrobial activity against Staphylococcus aureus ATCC 29213 assessed as microbial growth inhibition measured after 18 hrs by CLSI based broth microdilution method; format: functional
Staphylococcus aureus [2] = assay: Antimicrobial activity against Staphylococcus aureus ATCC 29213 assessed as microbial growth inhibition at pH 5 to 6 by susceptibility testing method; format: functional, organism-based
Staphylococcus aureus [3] = assay: Antimicrobial activity against Staphylococcus aureus ATCC 29213 assessed as microbial growth inhibition at pH 5 to 6 by microdilution method; format: functional, organism-based

Row | Structure (SMILES) | MIC (Staphylococcus aureus [1]) | growth inhibition (GI) (Staphylococcus aureus [2]) | other results
1 | CNCCC(=O)NCCC[C@H](NC(=O)CCNC(=O)/C=C\C=C\C(C)C)C(=O)NC(CC(O)c1ccccc1)C(=O)NC(C(=O)N[C@@H](Cc1ccc(O)cc1)C(=O)NC1C(=O)N[C@H](CC(C)C)C(=O)N[C@@H](CC(=O)O)C(=O)NCC(=O)N[C@@H](CO)C(=O)NCC(=O)N[C@@H](CC(=O)c2ccc(Cl)cc2N)C(=O)N[C@@H](C)C(=O)N2CCC[C@H]2C(=O)NC1C)C(O)CC(=O)O (stereo not given in full) | 16 mg/L (≈ 8.89 µM) | – | –
2 | NCC[C@H](O)C(=O)N[C@@H]1C[C@H](N)[C@@H](O[C@H]2O[C@H](CN)[C@@H](O)[C@H](O)[C@H]2O)[C@H](O)[C@H]1O[C@H]1O[C@H](CO)[C@@H](O)[C@H](N)[C@H]1O | – | Active | –
3 | NC[C@H]1O[C@H](O[C@H]2[C@H](O)[C@@H](O[C@H]3O[C@H](CO)[C@@H](O)[C@H](N)[C@H]3O)[C@H](N)C[C@@H]2N)[C@H](N)C[C@@H]1O | – | Active | –
4 | CNCCC(=O)NCCC[C@H](NC(=O)CCNC(=O)/C=C\C=C\C(C)C)C(=O)NC(CC(O)c1ccccc1)C(=O)NC(C(=O)N[C@@H](Cc1ccc(OC2OC[C@H](O)[C@H](O)[C@H]2O)cc1)C(=O)NC1C(=O)N[C@H](CC(C)C)C(=O)N[C@@H](CC(=O)O)C(=O)NCC(=O)N[C@@H](CO)C(=O)NCC(=O)N[C@@H](CC(=O)c2ccc(Cl)cc2N)C(=O)N[C@@H](C)C(=O)N2CCC[C@H]2C(=O)NC1C)C(O)CC(=O)O (stereo not given in full) | 4 mg/L (≈ 2.07 µM) | – | –
5 | CCCCCCCCCC(=O)N[C@@H](Cc1c[nH]c2ccccc12)C(=O)N[C@H](CC(N)=O)C(=O)N[C@@H](CC(=O)O)C(=O)N[C@@H]1C(=O)NCC(=O)N[C@@H](CCCN)C(=O)N[C@@H](CC(=O)O)C(=O)N[C@H](C)C(=O)N[C@@H](CC(=O)O)C(=O)NCC(=O)N[C@H](CO)C(=O)N[C@@H]([C@H](C)CC(=O)O)C(=O)N[C@@H](CC(=O)c2ccccc2N)C(=O)O[C@@H]1C | – | – | growth inhibition (GI) (Staphylococcus aureus [3]): Active
